Earlier results, collected in US9393439B2, “Radiotherapy combined with hypoxic cell sensitizers” (IntraOp Medical Corporation, priority 2010, dated 2016).

Settings: patients, single dose administration; above this level the incidence of side effects increases

O=C(Cn1ccnc1[N+](=O)[O-])NCCO [Etanidazole, etanidazole]
maximum tolerated dose (dose that may safely be given): 12 gm/m^2
